Data published in ChEMBL document CHEMBL6121048 (J Med Chem, 2025).
The source made the active and inactive calls. No cut-off for these calls is given here.

What was measured:
[1] = Metabolic stability in human liver microsomes assessed as half life at 1 uM incubated for 5 mins in presence of NADPH by LC-MS/MS analysis; format: ADME, Microsome
[2] = Apparent permeability across basolateral to apical side in dog MDR1-deficient MDCK cells expressing human MDR1 at 3 uM by LC-MS/MS analysis; format: ADME, cell-based, Canis lupus familiaris
[3] = Efflux ratio of apparent permeability across basolateral to apical over apical to basolateral side in dog MDR1-deficient MDCK cells expressing human MDR1 at 3 uM by LC-MS/MS analysis; format: ADME, cell-based, Canis lupus familiaris
[4] = Apparent permeability across apical to basolateral side in dog MDR1-deficient MDCK cells expressing human MDR1 at 3 uM by LC-MS/MS analysis; format: ADME, cell-based, Canis lupus familiaris
[5] = target: Ionotropic glutamate receptor NMDA 1/2D (Rattus norvegicus) (UniProt P35439+Q62645); assay: Partial agonist activity at recombinant rat GluN1/GluN2D NMDA receptor expressed in xenopus laevis oocytes by measuring maximum response by two-electrode voltage-clamp method relative to glycine; format: cell-based
[6] = target: Glutamate NMDA receptor; Grin1/Grin2a (Rattus norvegicus, UniProt P35439+Q00959); assay: Partial agonist activity at recombinant rat GluN1/GluN2A NMDA receptor expressed in xenopus laevis oocytes in presence of L-glutamate by two-electrode voltage-clamp method; format: cell-based
[7] = target: T1, Glutamate NMDA receptor; Grin1/Grin2b (Rattus norvegicus) (UniProt P35439+Q00960); assay: Agonist activity at recombinant rat GluN1/GluN2B NMDA receptor expressed in xenopus laevis oocytes at 30 uM by two-electrode voltage-clamp method relative to control; format: cell-based
[8] = target: Ionotropic glutamate receptor NMDA 1/2D (Rattus norvegicus, UniProt P35439+Q62645); assay: Partial agonist activity at recombinant rat GluN1/GluN2D NMDA receptor expressed in xenopus laevis oocytes in presence of L-glutamate by two-electrode voltage-clamp method; format: cell-based
[9] = target: Glutamate NMDA receptor; Grin1/Grin2a (Rattus norvegicus) (UniProt P35439+Q00959); assay: Partial agonist activity at recombinant rat GluN1/GluN2A NMDA receptor expressed in xenopus laevis oocytes by measuring maximum response by two-electrode voltage-clamp method relative to glycine; format: cell-based; settings: filed as partial agonist
[10] = target: Glutamate NMDA receptor; Grin1/Grin2c (Rattus norvegicus, UniProt P35439+Q00961); assay: Agonist activity at recombinant rat GluN1/GluN2C NMDA receptor expressed in xenopus laevis oocytes in presence of L-glutamate by two-electrode voltage-clamp method; format: cell-based
[11] = target: Glutamate NMDA receptor; Grin1/Grin2c (Rattus norvegicus) (UniProt P35439+Q00961); assay: Agonist activity at recombinant rat GluN1/GluN2C NMDA receptor expressed in xenopus laevis oocytes by measuring maximum response by two-electrode voltage-clamp method relative to glycine; format: cell-based; settings: filed as agonist
Rattus norvegicus [12] = organism: Rattus norvegicus; assay: Agonist activity at recombinant rat GluN1 Y692L mutant receptor expressed in xenopus laevis oocytes in presence of L-glutamate by two-electrode voltage-clamp method; format: cell-based
Rattus norvegicus [13] = organism: Rattus norvegicus; assay: Agonist activity at recombinant rat GluN1 V689I mutant receptor expressed in xenopus laevis oocytes assessed as fold reduction by two-electrode voltage-clamp method; format: cell-based; settings: filed as agonist
Rattus norvegicus [14] = organism: Rattus norvegicus; assay: Agonist activity at recombinant rat GluN1 F754L mutant receptor expressed in xenopus laevis oocytes in presence of L-glutamate by two-electrode voltage-clamp method; format: cell-based
[15] = target: T1, Glutamate NMDA receptor; Grin1/Grin2b (Rattus norvegicus); assay: Agonist activity at recombinant rat GluN1/GluN2B NMDA receptor expressed in xenopus laevis oocytes at 3 uM by two-electrode voltage-clamp method relative to control; format: cell-based
[16] = target: T1, Glutamate NMDA receptor; Grin1/Grin2b (Rattus norvegicus); assay: Agonist activity at recombinant rat GluN1/GluN2B NMDA receptor expressed in xenopus laevis oocytes at 10 uM by two-electrode voltage-clamp method relative to control; format: cell-based
Rattus norvegicus [17] = organism: Rattus norvegicus; assay: Selectivity ratio of EC50 for partial agonist activity at recombinant rat GluN1/GluN2A NMDA receptor expressed in xenopus laevis oocytes to EC50 for agonist activity at recombinant rat GluN1/GluN2C NMDA receptor expressed in xenopus laevis oocytes; format: cell-based
[18] = Selectivity ratio of EC50 for wild type GluN1/GluN2C receptor to EC50 for GluN1 V689I/2C receptor expressed in xenopus laevis oocytes; format: cell-based
Rattus norvegicus [19] = organism: Rattus norvegicus; assay: Selectivity ratio of EC50 for partial agonist activity at recombinant rat GluN1/GluN2D NMDA receptor expressed in xenopus laevis oocytes to EC50 for agonist activity at recombinant rat GluN1/GluN2C NMDA receptor expressed in xenopus laevis oocytes; format: cell-based
[20] = Selectivity ratio of EC50 for wild type GluN1/2C receptor to EC50 for GluN1 S688A/2C mutant receptor expressed in xenopus laevis oocytes; format: cell-based
[21] = target: T1, Glutamate NMDA receptor; Grin1/Grin2b (Rattus norvegicus); assay: Agonist activity at recombinant rat GluN1/GluN2B NMDA receptor expressed in xenopus laevis oocytes at 1 uM by two-electrode voltage-clamp method relative to control; format: cell-based

Row | Structure (SMILES) | t1/2 [1] [h] | Papp [2] [×10⁻⁶ cm/s] | Ratio [3] | Papp [4] [×10⁻⁶ cm/s] | EC50 [6] [nM] | Activity [7] [%] | EC50 [8] [nM] | Rmax [9] [%] | EC50 [10] [nM] | Rmax [11] [%] | Rmax [5] [%] | other results
1 | CCc1ccccc1-c1ccc(C(=O)NC[C@@H](N)C(=O)O)s1 | > 2 | 1.4 |  | 2 | 57 |  | 81 | 77 | 41 | 234 | 32 | Activity (Rattus norvegicus [12]): inactive; fold change (FC) (Rattus norvegicus [13]): 1.3; Activity (Rattus norvegicus [14]): inactive; Activity [15]: < 5%
2 | COc1cccc(F)c1-c1ccc(C(=O)NC[C@@H](N)C(=O)O)s1 |  |  |  |  | 290 |  | 180 | 67 | 110 | 179 | 29 | Activity [16]: < 5%
3 | N[C@H](CNC(=O)c1ccc(-c2ccccc2F)s1)C(=O)O |  |  |  |  | 880 | < 5 | 980 | 63 | 230 | 410 |  | Rmax ([5]; filed as partial agonist): 45%
4 | N[C@H](CNC(=O)c1cc(Br)c(-c2ccccc2F)s1)C(=O)O | > 2 | 2.2 | 1.4 | 1.6 | 210 |  | 240 | 54 | 34 | 864 |  | Rmax ([5]; filed as partial agonist): 44%; Ratio EC50 (Rattus norvegicus [17]): 6.2; Ratio EC50 [18]: 2.6; Activity [16]: < 5%; Ratio EC50 (Rattus norvegicus [19]): 7.1; Activity (Rattus norvegicus [12]; filed as agonist): Active; Compound Shows Reduced Efficacy Compared To Wild-Type Glun1/2C; fold change (FC) (Rattus norvegicus [13]): 2; Activity (Rattus norvegicus [14]; filed as agonist): Active; Compound Shows Reduced Efficacy Compared To Wild-Type Glun1/2C; Ratio EC50 [20]: 1.9
5 | Cc1cc(C(=O)NC[C@@H](N)C(=O)O)sc1-c1ccccc1Br |  |  |  |  | 51 |  | 120 | 75 | 25 | 267 | 30 | Activity [21]: < 5%
6 | N[C@H](CNC(=O)c1ccc(-c2ccccc2Br)s1)C(=O)O | > 2 | 0.88 | 1.6 | 0.53 | 74 | < 5 | 72 | 80 | 38 | 156 | 28 | Ratio EC50 [18]: 2.9; Activity (Rattus norvegicus [12]): inactive; fold change (FC) (Rattus norvegicus [13]): 1.5; Activity (Rattus norvegicus [14]): inactive; Ratio EC50 [20]: 1.4
7 | COc1ccc(F)cc1-c1ccc(C(=O)NC[C@@H](N)C(=O)O)s1 |  |  |  |  | 1070 | < 5 | 1450 | 83 | 740 | 306 | 23 | 

The next lines start with results.

Row | t1/2 [1] [h] | Papp [2] [×10⁻⁶ cm/s] | Ratio [3] | Papp [4] [×10⁻⁶ cm/s] | EC50 [6] [nM] | Activity [7] [%] | EC50 [8] [nM] | Rmax [9] [%] | EC50 [10] [nM] | Rmax [11] [%] | Rmax [5] [%] | Structure (SMILES) | other results
8 | > 2 | 7.4 | 9.2 | 0.81 |  |  |  |  |  |  |  | CCc1ccccc1-c1cccc2[nH]c(C(=O)NC[C@@H](N)C(=O)O)cc12 | 
9 |  |  |  |  | 1990 | < 5 | 3520 | 62 | 930 | 321 |  | N[C@H](CNC(=O)c1ccc(-c2cccc(F)c2F)s1)C(=O)O | Rmax ([5]; filed as partial agonist): 41%
10 | 0.367 | 89.6 | 0.83 | 107.4 |  |  |  |  |  |  |  | CC(C)OC(=O)[C@H](N)CNC(=O)c1ccc(-c2ccccc2Br)s1 | 
11 | > 2 | 7.4 | 8.2 | 0.9 | 18 |  | 16 | 58 | 3 | 430 | 30 | N[C@H](CNC(=O)c1cc(Br)c(-c2ccccc2Br)s1)C(=O)O | Ratio EC50 (Rattus norvegicus [17]): 6.2; Ratio EC50 (Rattus norvegicus [19]): 5.5; Activity [21]: < 5%
